# In paper PMC2008936 (British Journal of Cancer, 1973):
# Legend:
# [1] = system: E. coli AB 2480 (uvrA recA)
# [2] = system: S. typhimurium TA 1530; format: cell-based, Salmonella typhimurium
# [3] = system: S. typhimurium his G46; format: cell-based, Salmonella typhimurium
# [4] = system: S. typhimurium his C207; format: cell-based, Salmonella typhimurium
# [5] = system: rat liver; conditions: in vivo; cited from earlier work
# [6] = system: Drosophila; conditions: in vivo; cited from earlier work
# [7] = system: Neurospora; conditions: cited from earlier work
# [8] = system: bacterial transforming DNA; conditions: cited from earlier work
# [9] = in vitro; conditions: male, Wistar, Escherichia coli (indicator bacteria); rat (liver fraction)
# [10] = microsomes
molecule,measurement,setting,value
COc1c2c(c3oc4cccc(O)c4c(=O)c3c1OC)C1C=COC1O2 (centres unmarked) [5-methoxysterigmatocystin],Formation of toxic metabolites on incubation with mixed function oxidases,[1],Toxic metabolites were also formed
"COc1cc2c(c3oc(=O)cc(CCO)c13)C1C=COC1O2 (centres unmarked) [Parasiticol, parasiticol]",Formation of toxic metabolites on incubation with mixed function oxidases,[1],Toxic metabolites were also formed
"c1ccc2c(c1)cc1ccc3cccc4ccc2c1c34 [benzo(a)pyrene, reference compound]",Effect of pretreatment of rats on amount of lethal aflatoxin B1 metabolite formed by liver,[1],did not alter the amount
aflatoxin B1,Effect of incubation at 30 C on number of bacteria killed,[2],a decrease in the number of bacteria killed
same,Mutation of the strain by the aflatoxin B1 metabolite,[3],not mutated by it
same,Sensitivity of the strain to the toxic effects of the metabolite,[3],resistant to the toxic effects
same,Mutation of the strain by the aflatoxin B1 metabolite,[4],not mutated by it
same,Sensitivity of the strain to the toxic effects of the metabolite,[4],resistant to the toxic effects
same,Killing activity with heat denatured liver preparation,[1],abolished all killing activity
same,Liver carcinogenicity,[5],most potent liver carcinogen known for the rat
same,Mutagenicity,[6],mutagenic
same,Mutagenicity,[7],mutagenic
same,Mutagenicity,[8],mutagenic
sodium sulphide,Effect of added agent on bacterial killing by the aflatoxin B1 metabolite,[2],did not alter bacterial killing
O=S([O-])([O-])=S.[Na+].[Na+] [sodium thiosulphate],Effect of added agent on bacterial killing by the aflatoxin B1 metabolite,[2],did not alter bacterial killing
"CCC1(c2ccccc2)C(=O)NC(=O)NC1=O [Phenobarbitone, phenobarbitone, reference compound]",Effect of pretreatment of rats on amount of lethal aflatoxin B1 metabolite formed by liver,[1],an increase was observed
COc1cc2c(c3oc4cccc(O)c4c(=O)c13)[C@@H]1C=CO[C@@H]1O2 [sterigmatocystin],Survival [no. viable bacteria (treated)/no. viable bacteria (control) x 100],[1],0- 3
same,viability,[9],0.5%
CSCC[C@H](N)C(=O)O [methionine],Effect of added agent on bacterial killing by the aflatoxin B1 metabolite,[2],did not alter bacterial killing
N[C@@H](CCC(=O)N[C@@H](CS)C(=O)NCC(=O)O)C(=O)O [glutathione],Effect of added agent on bacterial killing by the aflatoxin B1 metabolite,[2],did not alter bacterial killing
N[C@@H](CS)C(=O)O [cysteine],Effect of added agent on bacterial killing by the aflatoxin B1 metabolite,[2],did not alter bacterial killing
"O=C1c2cc(O)cc(O)c2C(=O)c2c1cc1c(c2O)[C@@H]2C=CO[C@@H]2O1 [Versicolorin A, versicolorin A]",Formation of toxic metabolites on incubation with mixed function oxidases,[1],Toxic metabolites were also formed
C1CCC2OC2C1 (centres unmarked) [cyclohexene oxide],Effect of added agent on bacterial killing by the aflatoxin B1 metabolite,[2],did not alter bacterial killing
"OCC(S)CS (centres unmarked) [2,3-Dimercaptopropanol]",Effect of added agent on bacterial killing by the aflatoxin B1 metabolite,[2],some protective action
same,Inhibition of killing (fold),[2],three-fold
same,Survivors in the presence of dimercaptopropanol,[2],42%
same,Effect on amount of aflatoxin B1 metabolized,[10],no alteration in the amount of aflatoxin B1 metabolized
COc1cccc2oc3c4c(cc(OC)c3c(=O)c12)OC1OC=CC41 (centres unmarked) [O-methylsterigmatocystin],Formation of toxic metabolites on incubation with mixed function oxidases,[1],Toxic metabolites were also formed
"Cc1ccc2cc3c(ccc4ccccc43)c3c2c1CC3 [3-methylcholanthrene, reference compound]",Effect of pretreatment of rats on amount of lethal aflatoxin B1 metabolite formed by liver,[1],did not alter the amount
